Data from PubChem BioAssay (NCI).
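Following 48 hours of exposure in 96-well plates, responses at five concentrations were used to interpolate endpoints linearly. The concentration for full growth arrest is given as TGI.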

Columns and labels:
Experiment in all cases: DTP human tumour cell line panel, 48 h
786-0 renal = test system: 786-0 renal
A498 renal = test system: A498 renal
A549 NSCLC = test system: A549 NSCLC
ACHN renal = test system: ACHN renal
CCRF-CEM leukemia = test system: CCRF-CEM leukemia
COLO 205 colon = test system: COLO 205 colon
DU-145 prostate = test system: DU-145 prostate
EKVX NSCLC = test system: EKVX NSCLC
HCC-2998 colon = test system: HCC-2998 colon
HCT-116 colon = test system: HCT-116 colon
HCT-15 colon = test system: HCT-15 colon
HL-60(TB) leukemia = test system: HL-60(TB) leukemia
HOP-62 NSCLC = test system: HOP-62 NSCLC
HOP-92 NSCLC = test system: HOP-92 NSCLC
HS 578T breast = test system: HS 578T breast
HT29 colon = test system: HT29 colon
IGROV1 ovarian = test system: IGROV1 ovarian
K-562 leukemia = test system: K-562 leukemia
KM12 colon = test system: KM12 colon
LOX IMVI melanoma = test system: LOX IMVI melanoma
M14 melanoma = test system: M14 melanoma
MCF7 breast = test system: MCF7 breast
MDA-MB-231 breast = test system: MDA-MB-231 breast
MDA-MB-435 = test system: MDA-MB-435
MDA-N = test system: MDA-N
MOLT-4 leukemia = test system: MOLT-4 leukemia
NCI-H226 lung = test system: NCI-H226 lung
NCI-H23 lung = test system: NCI-H23 lung
NCI-H460 lung = test system: NCI-H460 lung
NCI-H522 lung = test system: NCI-H522 lung
NCI/ADR-RES ovarian = test system: NCI/ADR-RES ovarian
OVCAR-3 ovarian = test system: OVCAR-3 ovarian
OVCAR-4 ovarian = test system: OVCAR-4 ovarian
OVCAR-5 ovarian = test system: OVCAR-5 ovarian
OVCAR-8 ovarian = test system: OVCAR-8 ovarian
PC-3 prostate = test system: PC-3 prostate
RPMI-8226 leukemia = test system: RPMI-8226 leukemia
RXF 393 renal = test system: RXF 393 renal
SF-268 CNS = test system: SF-268 CNS
SF-295 CNS = test system: SF-295 CNS
SF-539 CNS = test system: SF-539 CNS
SK-MEL-28 melanoma = test system: SK-MEL-28 melanoma
SK-MEL-5 melanoma = test system: SK-MEL-5 melanoma
SK-OV-3 ovarian = test system: SK-OV-3 ovarian
SN12C renal = test system: SN12C renal
SNB-19 CNS = test system: SNB-19 CNS
SNB-75 CNS = test system: SNB-75 CNS
SW-620 colon = test system: SW-620 colon
T-47D breast = test system: T-47D breast
TK-10 renal = test system: TK-10 renal
U251 CNS = test system: U251 CNS
UACC-257 melanoma = test system: UACC-257 melanoma
UACC-62 melanoma = test system: UACC-62 melanoma
UO-31 renal = test system: UO-31 renal

Q: How did the TGI (786-0 renal) turn out when `Cc1cc2c(c(C)c1O)C(C)(C)CN2C(=O)C(C)(C)C` was run?
A: > 100 µM

Q: And the TGI (A498 renal)?
A: > 100 µM

Q: And the TGI (A549 NSCLC)?
A: > 100 µM

Q: And the TGI (ACHN renal)?
A: > 100 µM

Q: What about the TGI (CCRF-CEM leukemia) of the same compound?
A: > 100 µM

Q: And the TGI (COLO 205 colon)?
A: > 100 µM

Q: What about the TGI (DU-145 prostate) of the same compound?
A: > 100 µM

Q: And the TGI (EKVX NSCLC)?
A: > 100 µM

Q: What about the TGI (HCC-2998 colon) of the same compound?
A: > 100 µM

Q: What about the TGI (HCT-116 colon) of the same compound?
A: > 100 µM

Q: What about the TGI (HCT-15 colon) of the same compound?
A: > 100 µM

Q: And the TGI (HL-60(TB) leukemia)?
A: > 100 µM

Q: And the TGI (HOP-62 NSCLC)?
A: > 100 µM

Q: What about the TGI (HOP-92 NSCLC) of the same compound?
A: 78.5 µM

Q: What about the TGI (HS 578T breast) of the same compound?
A: > 100 µM

Q: And the TGI (HT29 colon)?
A: > 100 µM

Q: What about the TGI (IGROV1 ovarian) of the same compound?
A: > 100 µM

Q: What about the TGI (K-562 leukemia) of the same compound?
A: > 100 µM

Q: What about the TGI (KM12 colon) of the same compound?
A: > 100 µM

Q: What about the TGI (LOX IMVI melanoma) of the same compound?
A: > 100 µM

Q: What about the TGI (M14 melanoma) of the same compound?
A: > 100 µM

Q: What about the TGI (MCF7 breast) of the same compound?
A: > 100 µM

Q: What about the TGI (MDA-MB-231 breast) of the same compound?
A: > 100 µM

Q: And the TGI (MDA-MB-435)?
A: > 100 µM

Q: What about the TGI (MDA-N) of the same compound?
A: > 100 µM

Q: What about the TGI (MOLT-4 leukemia) of the same compound?
A: > 100 µM

Q: And the TGI (NCI-H226 lung)?
A: > 100 µM

Q: And the TGI (NCI-H23 lung)?
A: > 100 µM

Q: What about the TGI (NCI-H460 lung) of the same compound?
A: > 100 µM

Q: And the TGI (NCI-H522 lung)?
A: > 100 µM

Q: What about the TGI (NCI/ADR-RES ovarian) of the same compound?
A: 41.2 µM

Q: What about the TGI (OVCAR-3 ovarian) of the same compound?
A: 28.3 µM

Q: What about the TGI (OVCAR-4 ovarian) of the same compound?
A: > 100 µM

Q: What about the TGI (OVCAR-5 ovarian) of the same compound?
A: > 100 µM

Q: And the TGI (OVCAR-8 ovarian)?
A: > 100 µM

Q: What about the TGI (PC-3 prostate) of the same compound?
A: > 100 µM

Q: And the TGI (RPMI-8226 leukemia)?
A: > 100 µM

Q: And the TGI (RXF 393 renal)?
A: 86.9 µM

Q: What about the TGI (SF-268 CNS) of the same compound?
A: > 100 µM

Q: What about the TGI (SF-295 CNS) of the same compound?
A: > 100 µM

Q: And the TGI (SF-539 CNS)?
A: > 100 µM

Q: What about the TGI (SK-MEL-28 melanoma) of the same compound?
A: > 100 µM

Q: What about the TGI (SK-MEL-5 melanoma) of the same compound?
A: > 100 µM

Q: And the TGI (SK-OV-3 ovarian)?
A: > 100 µM

Q: And the TGI (SN12C renal)?
A: > 100 µM

Q: And the TGI (SNB-19 CNS)?
A: > 100 µM

Q: What about the TGI (SNB-75 CNS) of the same compound?
A: 89.2 µM

Q: What about the TGI (SW-620 colon) of the same compound?
A: > 100 µM

Q: What about the TGI (T-47D breast) of the same compound?
A: > 100 µM

Q: What about the TGI (TK-10 renal) of the same compound?
A: > 100 µM

Q: What about the TGI (U251 CNS) of the same compound?
A: > 100 µM

Q: And the TGI (UACC-257 melanoma)?
A: > 100 µM

Q: What about the TGI (UACC-62 melanoma) of the same compound?
A: > 100 µM

Q: What about the TGI (UO-31 renal) of the same compound?
A: > 100 µM
